Experimental data from US10624914B2, “Methods for determining the level of hyposialylation of Angptl4” (priority 2010, dated 2020).
Entries after “also recorded” stand apart in the source; their conditions may differ.

Columns and labels:
[1] = test system: mouse Angptl4 promoter; assay: Angptl4 promoter-reporter (SEAP) study in HEK 293 cells and GECs; type: cell-based; conditions: mifepristone 2×10^−5 M, glucocorticoid receptor antagonist
Procedure: We conducted 5′ RACE and primer extension analysis using mouse kidney mRNA and confirmed the same transcriptional start site in the kidney. Next, a 2 Kb fragment upstream of the transcriptional start site was clone using BAC clone RP23-27D5 as a template into pSEAP2 basic. A 2 Kb human Angptl4 promoter constructs were similarly generated using BAC clone RP11-886P16.
Incubation of HEK 293 cells and GECs transfected with Angptl4-pSEAP or empty vector promoter—reporter constructs for mouse Angptl4 with dexamethasone (10^−3 M) show a decline in SEAP activity at 48 hours. This decline in activity is mediated via the glucocorticoid receptor, since it is reversed by the receptor antagonist mifepristone (2×10^−5 M). Glucocorticoid sensitivity of the human promoter was also assessed (dexamethasone 10^−4 M). All transfection reactions were normalized using the pβgal vector (Clontech, Mountain View Calif. USA).

[2] = test system: Angptl4; assay: 2D gel electrophoresis, Western blot and densitometry of glomerular Angptl4 from ManNAc fed NPHS2-Angptl4 TG rats; type: in vivo, rat
Text: The following techniques are described in prior publications: Taqman real time PCR (26), confocal imaging (7), in situ hybridization (27), promoter—reporter studies (7), immunogold EM (26), glomerular extraction and processing for Western blot (26), assessment of charge by PEI method (28); the foregoing references are hereby incorproated by reference for such teachings. For alcian blue staining, the pH of the staining solution was adjusted to 2.5 using acetic acid, and 0.1% nuclear fast red solution was used as a counterstain. Densitometry of glomerular basement membrane alcian blue stain (20 glomeruli/rat, 3 rats/group) was assessed using Image-Pro software (Media Cybernetics, Inc., Bethesda Md., USA). Densitometry of 2D gel Western blots was assessed using Gel-Pro Analyzer software (Media Cybernetics, Inc.). For in situ hybridization, the digoxigenin labeled probe for rat Angptl4 included bp 1 to 548 of the ORF.
To study the effect of manNAc on the sialylation of recombinant protein, the Angptl4-HEK293 stable or pcDNA3.1-HEK293 control stable cell lines were grown to confluence in 15 cm dishes, washed twice with warm PBS, then incubated with serum free DMEM without phenol red with or without 25 mM manNAc for 48 hours, after which the media was harvested, concentrated, protein assay conducted, and loaded on the 2D gels (200 μg/gel). […]
To make the study affordable, 7 homozygous male NPHS2-Angptl4 rats, age 3-3.5 months, with 15-25 fold higher albuminuria than wild type rats, were given ManNAc 1 mg/ml of tap water for 12 days (ManNAc phase), after which three were euthanized and the others returned to plain tap water for another 24 days (washout phase). […] Another seven male NPHS2-Angptl4 rats of similar age were assessed for baseline albuminuria levels, given normal tap water (control group), three euthanized on Day 12 and others followed up to day 36, after which albuminuria was reassessed and the animals euthanized. […]

[3] = test system: rats with puromycin aminonucleoside nephrosis (PAN model); assay: Nephrotic syndrome parameters in puromycin aminonucleoside nephrosis (PAN model) rats treated with ManNAc; type: in vivo, rat; conditions: ManNAc 80 mg/Kg body weight in tap water from Day 4, Day 6
Procedure: FIGS. 7A-D show improvement in nephrotic syndrome parameters in ManNAc treated rats with puromycin aminonucleoside nephrosis (PAN model). In FIGS. 7A-7D, rats (n=5 rats/group) received a single intravenous injection of puromycin aminonucleoside (10 mg/100 gm), and were treated with ManNAC 80 mg/Kg body weight in tap water starting on Day 4, which coincides with the onset of proteinuria.
Rats (n=5 rats/group) received a single intravenous injection of puromycin aminonucleoside (10 mg/100 gm), and were treated with ManNAC 80 mg/Kg body weight in tap water starting on Day 4, which coincides with the onset of proteinuria. Data from Day 6 is shown.

[4] = test system: Angptl4; assay: Sialylation of recombinant Angptl4 in Angptl4-HEK293 stable cell line incubated with ManNAc; type: cell-based, rat; conditions: ManNAc 25 mM, 48 hours
Procedure: To study the effect of manNAc on the sialylation of recombinant protein, the Angptl4-HEK293 stable or pcDNA3.1-HEK293 control stable cell lines were grown to confluence in 15 cm dishes, washed twice with warm PBS, then incubated with serum free DMEM without phenol red with or without 25 mM manNAc for 48 hours, after which the media was harvested, concentrated, protein assay conducted, and loaded on the 2D gels (200 μg/gel). Western blots of glomeruli or recombinant protein were conducted using rabbit anti-Angptl4 (full length) antibody, preimmune rabbit serum and lectins SNA I-HRP and MAA-HRP (E-Y laboratories, San Mateo Calif. USA).

[5] = test system: NPHS2-Angptl4 TG rats; assay: Albuminuria in NPHS2-Angptl4 TG rats given ManNAc in tap water; type: in vivo, rat
Text: Transgenic rats were generated by microinjection of the digested DNA constructs into fertilized Sprague Dawley eggs (conducted at University of Michigan), implantation into pseudopregnant host Sprague Dawley females, and the resulting offsprings were genotyped by routine PCR and TaqMan genomic DNA real time PCR strategy using construct specific and control genomic prolactin primer and probe combinations. Two founder lines for podocyte specific expression were generated. Data from NPHS2-Angptl4 TG rat line 740 (5 copies of the transgene) and were stable over 4 generations, are presented. Urinary total protein was assessed using the Bradford method (Biorad laboratories, Hercules Calif. USA), and albuminuria by ELISA (Bethyl laboratories, Montgomery Tex. USA).
To make the study affordable, 7 homozygous male NPHS2-Angptl4 rats, age 3-3.5 months, with 15-25 fold higher albuminuria than wild type rats, were given ManNAc 1 mg/ml of tap water for 12 days (ManNAc phase), after which three were euthanized and the others returned to plain tap water for another 24 days (washout phase). 18 hour urine collections were done twice (Day- 12 and Day 0) before the study to confirm rising albuminuria, and periodically during the study. Another seven male NPHS2-Angptl4 rats of similar age were assessed for baseline albuminuria levels, given normal tap water (control group), three euthanized on Day 12 and others followed up to day 36, after which albuminuria was reassessed and the animals euthanized. Daily water intake of each rat was charted. At each euthanasia time point, kidneys were removed after perfusion, glomeruli isolated and processed for 2D gel electrophoresis. Albuminuria on Day 0 for each rats was denoted as 100% and all subsequent albuminuria values were expressed relative to Day 0.

[6] = test system: Zucker Diabetic Fatty rats; assay: Proteinuria in Zucker Diabetic Fatty rats treated with ManNAc; type: in vivo, rat; conditions: 13 week old male rats, ManNAc in tap water, 70 mg/Kg up to 20 days and 140 mg/Kg, vs plain tap water
Procedure: 13 week old male Zucker Diabetic Fatty rats were treated with ManNAc in tap water or with plain tap water (n=4 rats/group) at 70 and 140 mg/Kg.
These high pI hyposialylated forms of Angptl4 are sensitive to sialic acid precursor therapy, including ManNAc and ManNAc derivatives. […] In FIG. 8C, 13 week old male Zucker diabetic fatty rats were treated with ManNAc in tap water or with plain tap water (n=4 rats/group).

Compound	dexamethasone-induced decline in SEAP activity [1]	percentage of neutral pI forms of Angptl4 (effect in words) ([2]; Day 12, ManNAc fed rats vs control TG rats)	sialylation of glomerular Angptl4 (reactivity with lectin SNA I) ([2]; Day 12, ManNAc treated rats)	neutral pI Angptl4 fraction (densitometry of Western blots, glomerular Angptl4) ([2]; rats euthanized on Day 12, ManNAc 1 mg/ml) [%]	hypercholesterolemia (cholesterol) [3]	hypertriglyceridemia (triglycerides) [3]	plasma albumin levels [3]	proteinuria ([3]; vs control PAN rats)	reactivity of Angptl4 to sialic acid binding lectin MAA [4]	sialylation of Angptl4 [4]	electrophoretic migration (pI) of secreted Angptl4 ([4]; serum free, concentrated supernatant)	18 hour albuminuria, nadir on Day 12 ([5]; 1 mg/ml ManNAc in tap water for 12 days, Day 0 = 100%)	albuminuria (effect in words) ([5]; ManNAc 1 mg/ml in tap water for 12 days)	reduction in albuminuria compared to baseline ([5]; ManNAc 1 mg/ml in tap water, over a 12 day period)	albuminuria after washout ([5]; after 12 days of washout following 12 days ManNAc 1 mg/ml)	reduction in albuminuria maintained ([5]; pilot studies, heavily albuminuric NPHS2-Angptl4 rats, ManNAc 8 mg/ml tap water)	albuminuria (effect in words) ([5]; pilot studies, heavily albuminuric rats, increasing doses of ManNAc (1 to 8 mg/ml))	proteinuria [6]
CC#C[C@]1(O)CC[C@H]2[C@@H]3CCC4=CC(=O)CCC4=C3[C@@H](c3ccc(N(C)C)cc3)C[C@@]21C [mifepristone]	reversed																	
CC(=O)N[C@@H]1C(O)O[C@H](CO)[C@@H](O)[C@@H]1O (stereo partly drawn) [ManNAc, N-acetylmannosamine]		significant increase	increased sialylation	72.9 ± 1.4	significant reduction	significant reduction	significant improvement	significant reduction	increased reactivity	increased sialylation	shift of the protein towards neutral pI; also recorded: shift from high pI forms	59.4±3.3 % of baseline	reduced albuminuria; also recorded: significant reduction	over 40%	returned towards baseline values	20-30%	reduced albuminuria	Significant reduction
